According to patent US10246455B2, “Histone deacetylase inhibitors” (Taipei Medical University, priority 2014, dated 2019):

Legend:
[1] = system: PC3 prostate cancer cells; assay: Three dimensional cell growth inhibitory assay (cellular spheres, MTT, microscopy): PC3; type: cell-based, human; details: Homo sapiens
Protocol: For the three dimensional assay, cells in the logarithmic phase were cultured in 50% Matrigel-containing complete medium in 96-well plates at 37° C. with 5% CO2 for five days incubation, and treated with appropriate concentrations of test compounds for three generative times. Images of spheroids were taken under a microscope, and spheroid cell survival was determined by MTT assays.
The cells (in the 2D culture) and the cellular spheres (in the 3D culture) were treated with test compounds for 72 hours, and then subjected to the MTT colorimetric assay. Each value represents the mean of three independent experiments. Cellular spheres formed in semi-solid and drug effect on cellular spheres were examined using phase-contrast light microscopy.
More specifically, cellular spheres formed in semi-solid and drug effect on cellular spheres were examined using phase-contrast light microscopy. 3D structures of cells were analyzed using 4× magnification, 10× magnification, and 20× magnification.

[2] = system: PC3 prostate cancer cells; assay: Two dimensional cell growth inhibitory assay (MTT): PC3; details: Homo sapiens
Protocol: For the two dimensional assay, cancel cells in the logarithmic phase were cultured in complete medium in 96-well plates at 37° C. with 5% CO2 for overnight incubation, and treated with various concentrations of test compounds for three generative times. Cells were then incubated with a serum free medium containing 3-(4,5-dimethylthiazol-2-yl)-2,5-diphenyltetrazolium bromide (MTT) at a final concentration of 0.5 mg/mM for four hours. MTT was converted to formazan by metabolically viable cells. Formazan was then solublized in 50% DMF solution containing 20% SDS at 37° C. overnight. Absorbance was measured at 570 nm using a spectramax M5 microplate reader (Molecular Devices, UK).

[3] = system: KB cell line (oral carcinoma); assay: IC50 in human cancer cell lines (inhibiting HDAC): KB; details: Homo sapiens, read-out: IC50, inhibiting HDAC in human cancer cell lines, KB, oral carcinoma
C6 glioma cell line = assay: Cell death in C6 glioma in vitro (LDH assay); type: cell-based; details: rat C6 glioma, 30 uM, after 3 days
Protocol: Cell death was analyzed by a lactate dehydrogenase (LDH) assay. The culture medium was centrifuged after the experiment and the activity of LDH released into culture media was detected with a LDH cytotoxicity detection kit (Roche). The percentage of cytotoxicity was determined by the equation: [(Experimental group−Control group)/(Triton-100-treated group (100% maximal death)−Control group)]×100%.

KB-VIN10 (KB resistant) = assay: IC50 against human cancer cell lines: KB-VIN10; details: read-out: IC50 ± SD against human cancer cell lines; KB-VIN10, KB resistant
[4] = system: A549 (non-small-cell lung carcinoma); assay: IC50 in human cancer cell lines (inhibiting HDAC): A549; details: read-out: IC50, inhibiting HDAC in human cancer cell lines; A549, non-small-cell lung carcinoma
[5] = Table 6, cell line not given, read-out: IC50 value 3D Culture
[6] = read-out: IC50 value 2D Culture

SMILES	melting point	IC50 [3]	also measured
COc1cccc2c1C(=O)c1c(O)c3c(c(O)c1C2=O)C[C@@](O)(C(=O)CO)C[C@@H]3O[C@H]1C[C@H](N)[C@H](O)[C@H](C)O1 [Adriamycin]			IC50 [1, 5]: 720 ± 40 nM; IC50 ([1]; read-out: 3D Culture): 720 ± 40 nM; IC50 ([2]; read-out: 2D Culture): 70 ± 30 nM; IC50 [2, 6]: 70 ± 30 nM
O=C(/C=C/c1cccc(S(=O)(=O)n2ccc3ccccc32)c1)NO [Compound 1, (E)-3-(3-(1H-indol-1-ylsulfonyl)phenyl)-N-hydroxyacrylamide]	188 to 191 °C	< 6000 nM	
O=C(/C=C/c1cccc(S(=O)(=O)N2CCc3ccccc32)c1)NO [Compound 2, (E)-N-hydroxy-3-(3-(indolin-1-ylsulfonyl)phenyl)acrylamide]	207 to 209 °C	< 6000 nM	
O=C(/C=C/c1cccc(S(=O)(=O)n2ccc3cncnc32)c1)NO [Compound 4, (E)-3-(3-((7H-Pyrrolo[2,3-d]pyrimidin-7-yl)sulfonyl)phenyl)-N-hydroxyacrylamide]		< 6000 nM	
O=C(/C=C/c1cccc(S(=O)(=O)n2ccc3ncccc32)c1)NO [Compound 5, (E)-3-(3-(1H-Pyrrolo[3,2-b]pyridin-1-ylsulfonyl)phenyl)-N-hydroxyacrylamide]	148 to 150 °C		
O=C(/C=C/c1cccc(S(=O)(=O)n2ccc3ccncc32)c1)NO [Compound 6, (E)-3-(3-(1H-Pyrrolo[2,3-c]pyridin-1-ylsulfonyl)phenyl)-N-hydroxyacrylamide]	128 to 129 °C		
COc1ccc(S(=O)(=O)N2CCc3cc(/C=C/C(=O)Nc4ccccc4N)cnc32)cc1 [Compound 6a, (E)-N-(2-aminophenyl)-3-(1-(4-methoxyphenylsulfonyl)-2,3-dihydro-1H-pyrrolo[2,3-b]pyridin-5-yl)acrylamide]		< 6000 nM	
O=C(/C=C/c1cccc(S(=O)(=O)N2CCc3cccnc32)c1)NO [Compound 8, (E)-3-(3-(2,3-Dihydro-1H-pyrrolo[2,3-b]pyridin-1-ylsulfonyl)phenyl)-N-hydroxyacrylamide]	228 to 230 °C	< 6000 nM	
O=C(/C=C/c1ccc(S(=O)(=O)n2ncc3ccccc32)cc1)NO [Compound 9, (E)-3-(4-(1H-Indazol-1-ylsulfonyl)phenyl)-N-hydroxyacrylamide]		< 6000 nM	
O=C(/C=C/c1ccc(S(=O)(=O)n2ccc3ncccc32)cc1)NO [Compound 10, (E)-3-(4-(1H-Pyrrolo[3,2-b]pyridin-1-ylsulfonyl)phenyl)-N-hydroxyacrylamide]	188 to 190 °C	< 6000 nM	
COc1ccc(S(=O)(=O)N2CCc3cc(C(=O)NO)cnc32)cc1 [Compound 10a, N-hydroxy-1-(4-methoxyphenylsulfonyl)-2,3-dihydro-1H-pyrrolo[2,3-b]pyridine-5-carboxamide]		< 6000 nM	
O=C(/C=C/c1ccc(S(=O)(=O)n2ccc3ccncc32)cc1)NO [Compound 11, (E)-3-(4-(1H-Pyrrolo[2,3-c]pyridin-1-ylsulfonyl)phenyl)-N-hydroxyacrylamide]	167 to 169 °C	< 6000 nM	
O=C(/C=C/c1ccc(S(=O)(=O)n2ccc3cccnc32)cc1)NO [Compound 12, (E)-3-(4-(1H-Pyrrolo[2,3-b]pyridin-1-ylsulfonyl)phenyl)-N-hydroxyacrylamide]	169 to 170 °C		
O=C(/C=C/c1ccc(S(=O)(=O)N2CCc3cccnc32)cc1)NO [Compound 13, (E)-3-(4-(2,3-Dihydro-1H-pyrrolo[2,3-b]pyridin-1-ylsulfonyl)phenyl)-N-hydroxyacrylamide]	220 to 223 °C	< 6000 nM	
Nc1ccccc1NC(=O)c1ccc(Cn2ccc3ccccc32)cc1 [Compound 14, 4-((1H-Indol-1-yl)methyl)-N-(2-aminophenyl)benzamide]		< 6000 nM	
Nc1ccccc1NC(=O)c1ccc(CN2CCc3ccccc32)cc1 [Compound 15, N-(2-Aminophenyl)-4-(indolin-1-ylmethyl)benzamide]		< 6000 nM	
Nc1ccccc1NC(=O)c1ccc(Cn2ncc3ccccc32)cc1 [Compound 16, 4-((1H-Indazol-1-yl)methyl)-N-(2-aminophenyl)benzamide]	185 to 188 °C	< 6000 nM	
Nc1ccccc1NC(=O)c1ccc(Cn2ccc3ncccc32)cc1 [Compound 17, 4-((1H-Pyrrolo[3,2-b]pyridin-1-yl)methyl)-N-(2-aminophenyl)-benzamide]	116 to 118 °C	< 6000 nM	
Nc1ccccc1NC(=O)c1ccc(Cn2ccc3cnccc32)cc1 [Compound 18, 4-((1H-Pyrrolo[3,2-c]pyridin-1-yl)methyl)-N-(2-aminophenyl)benzamide]	165 to 167 °C	< 6000 nM	
Nc1ccccc1NC(=O)c1ccc(Cn2ccc3ccncc32)cc1 [Compound 19, 4-((1H-Pyrrolo[2,3-c]pyridin-1-yl)methyl)-N-(2-aminophenyl)-benzamide]	154 to 155 °C	< 6000 nM	
Nc1ccccc1NC(=O)c1ccc(Cn2ccc3cccnc32)cc1 [Compound 20, 4-((1H-Pyrrolo[2,3-b]pyridin-1-yl)methyl)-N-(2-aminophenyl)benzamide]	158 to 159 °C	< 6000 nM	
Nc1ccccc1NC(=O)c1ccc(CN2CCc3cccnc32)cc1 [Compound 21, N-(2-Aminophenyl)-4-((2,3-dihydro-1H-pyrrolo[2,3-b]pyridin-1-yl)methyl)benzamide]	105 to 107 °C	< 6000 nM	
O=C(NO)c1ccc(Cn2ccc3cccnc32)cc1 [Compound 23, N-Hydroxy-4-pyrrolo[2,3-b]pyridin-1-ylmethyl-benzamide]		< 6000 nM	
CC(=O)O[C@H]1C(=O)[C@@]2(C)[C@H]([C@H](OC(=O)c3ccccc3)[C@]3(O)C[C@H](OC(=O)[C@H](O)[C@@H](NC(=O)c4ccccc4)c4ccccc4)C(C)=C1C3(C)C)[C@]1(OC(C)=O)CO[C@@H]1C[C@@H]2O [Paclitaxel]			IC50 [1, 5]: 5850 ± 70 nM; IC50 ([1]; read-out: 3D Culture): 5850 nM; IC50 ([2]; read-out: 2D Culture): 0.2 ± 0.1 nM; IC50 [2, 6]: 0.2 ± 0.1 nM
O=C(CCCCCCC(=O)Nc1ccccc1)NO [SAHA, reference compound]			induction of cell death (LDH) (C6 glioma cell line): about 70%; IC50 (KB-VIN10 (KB resistant)): 1850 ± 526 nM; IC50 [4]: 1540 ± 80 nM
CC[C@]1(O)C[C@H]2CN(CCc3c([nH]c4ccccc34)[C@@](C(=O)OC)(c3cc4c(cc3OC)N(C=O)[C@H]3[C@@](O)(C(=O)OC)[C@H](OC(C)=O)[C@]5(CC)C=CCN6CC[C@]43[C@@H]65)C2)C1 [Vincristine]			IC50 [1, 5]: 2.5 ± 0.71 nM; IC50 ([1]; read-out: 3D Culture): 2.5 ± 0.71 nM; IC50 ([2]; read-out: 2D Culture): 0.75 ± 0.64 nM; IC50 [2, 6]: 0.75 ± 0.64 nM
